From patent US10213451B2, “Methods and compounds for modulating the secretion or expression of adhesion proteins or angiopoietins of cells” (PACIFIC ARROW LIMITED, priority 2004, dated 2019)

Columns and labels:
[1] = tested on: integrin (vitronectin receptor) expression in ES2 cells; assay: Microarray gene expression, Table 2; assay type: cell-based, human
Protocol: (§1) Y/D is the ratio (in folds) of gene expression in cells treated with compound Y as compared with those of the no drug control (D),
(§2) YM/D is the ratio of gene expression in cells treated with compound YM (ACH-Y, Y without sugar moiety) compared with those of the no drug control (D)
(§3) Cell culture and drug-treatment.: ES2 cells were seeded in a T-25 flask with 4.5 million cells per flask for 24 hours. Cell culture was replaced with fresh medium with xanifolia-Y (Y) or DMSO no drug control (D) for 24 hours. Cells were then harvested for RNA isolation. Three experiments were done.
(§4) RNA extraction, labeling, hybridization, and data analysis. RNA was extracted from tumor cells using the Qiagen RNeasy Kit. RNA quality and quantity was checked by the Agilent BioAnalyzer and the NanoDrop® ND-1000 spectrophotometer respectively before further manipulation. The first and second cDNA strands were synthesized from 20 ng of total RNA using the Affymetrix T7 oligo(dT) primer protocol and kit for the two-cycle amplification. To produce amplified biotin-labeled-cRNA, the cDNA was […] by in vitro transcription using the MegaScript kit from Ambion. 15.0 μg of the labeled cRNA was fragmented and re-checked for concentration using the NanoDrop® ND-1000 spectrophotometer. A hybridization cocktail containing Affymetrix spike-in controls and fragmented labeled cRNA was loaded onto the Human U133 Plus 2.0 GeneChip® oligonucleotide array. The Affymetrix array (Affymetrix, Inc. Santa Clara, Calif.) is comprised of over 1,300,000 unique oligonucleotide features that represent greater than 38,500 well-substantiated human genes. The array was hybridized for 16 hours at 45° C. with rotation at 60 rpm then washed and stained with a strepavidin, R-phycoerythrin conjugate stain on the Affymetrix Fluidicis Station 450. Signal amplification was done using biotinylated antistreptavidin. The arrays were scanned using the GeneChip® 3000 confocal laser scanner with autoloader. The images were analyzed and quality control metrics recorded using Affymetrix GCOS software version 1.4. Lastly, the expression value for each gene was calculated using dChip PM-only model based or Plier algorithm.
(§5) Pairwise comparisons were made as follows: Treated vs. Control (Y vs. D), Modified Drug vs Control (YM/ACY-H vs. D) and Treated vs. Modified Drug (Y vs. YM/ACH-Y) Cel files analyzed using the Bioconductor package of R Statistical programming. Limma analysis generated a reasonable number of changing genes between the samples.
The raw data in the .CEL files were normalized by the GCRMA method (robust multi-array analysis). It is implemented in Bioconductor (http://www.bioconductor.org/). […]

[2] = tested on: tenascin-C expression in ES2 cells; assay: Microarray gene expression, Table 9; assay type: cell-based, human; details: probe 201645_at
Protocol: as §1, §2, §3
RNA extraction, labeling, hybridization, and data analysis. RNA was extracted from tumor cells using the Qiagen RNeasy Kit. RNA quality and quantity was checked by the Agilent BioAnalyzer and the NanoDrop® ND-1000 spectrophotometer respectively before further manipulation. […] The images were analyzed and quality control metrics recorded using Affymetrix GCOS software version 1.4. Lastly, the expression value for each gene was calculated using dChip PM-only model based or Plier algorithm.
Pairwise comparisons were made as follows: Treated vs. Control (Y vs. D), Modified Drug vs Control (YM/ACY-H vs. D) and Treated vs. Modified Drug (Y vs. YM/ACH-Y) Cel files analyzed using the Bioconductor package of R Statistical programming. […]

[3] = tested on: insulin-like growth factor binding protein expression in ES2 cells; assay: Microarray gene expression, Table 16; assay type: cell-based, human; details: for IGFBP7 insulin-like growth factor binding protein 7, gene expression ratio to no drug control (D): probe 201163_s_at; for IGFBP4 insulin-like growth factor binding protein 4, gene expression ratio to no drug control (D): probe 201508_at; for IGFBP6 insulin-like growth factor binding protein 6, gene expression ratio to no drug control (D): probe 203851_at; for IGFBP1 insulin-like growth factor binding protein 1, gene expression ratio to no drug control (D): probe 205302_at
Protocol: as §1, §2, §3, §4, §5
(§6) The raw data in the .CEL files were normalized by the GCRMA method (robust multi-array analysis). It is implemented in Bioconductor (http://www.bioconductor.org/). The raw signal intensity data were normalized, background corrected and summarized based on certain statistical models, and an expression value, in log 2-scale, is obtained per chip per probe set. Then the null hypothesis was tested that there's no significant changes in gene expression between the treatment pairs. This was done by LIMMA and is also implemented in Bioconductor. It uses empirical Bayes method to estimate the variance in gene expression. One comparison was made, namely, High Grade vs. Low Grade. The raw p-values were adjusted by the Benjamnin-Hochberg method for false discovery rate (FDR) control. All data sets contained a significant number of genes with a p-value less than 0.05, which is that the probability that a gene is NOT differential expressed (false positive) is 1:20.

[4] = tested on: RAB3B, member RAS oncogene family protein expression in ES2 cells; assay: Microarray gene expression, Table 17; assay type: cell-based, human
Protocol: as §1, §2, §3, §4, §5, §6

60 cancer cell lines = assay: Test with 60 cancer cell lines; assay type: cell-based; details: most of 60 cancer cell lines tested
Protocol: To investigate the anti-tumor activity of Xanthoceras sorbifolia, we employed cancer cell lines derived from different human organs and tested the effect on growth activity. […] Intl App'l No. PCT/US04/33359 and U.S. Ser. No. 10/906,303. The active compound was then purified and named Xanifolia-Y. Its chemical structure was determined by 2D NMR and MS analysis. Xanifolia-Y is a novel triterpenoid saponin with a diangeloyl group attached at one end and carbohydrates or sugar moieties at another end of the triterpene structure. In an embodiment, the diangeloyl attached at C21, C22 positions and carbohydrates or sugar moieties at C3 position of a triterpene structure. The diangeloyl group is important for its activity. The purified compound has been tested with 60 cancer cell lines.

OVCA 433 = assay: MTT assay OVCA 433; assay type: cell-based; details: Homo sapiens, OVCA433; OVCA 433, Serous
Protocol: Majority of ovarian cancers arise from the surface epithelium of ovary, most of them belong to the histological subtypes of clear cell and serous carcinoma. We obtained 10 more human ovarian carcinoma cell-lines of these histological subtypes for these studies. The inhibition activity exerted by Xanifolia-Y was determined with MTT assay.

SMILES	ITGAV integrin, alpha V (vitronectin receptor), gene expression ratio to no drug control (D) ([1]; probe 202351_at)	ITGAV integrin, alpha V (vitronectin receptor), gene expression ratio to no drug control (D) ([1]; probe 236251_at)	TNC Tenascin C (hexabrachion), gene expression ratio to no drug control (D) [2]	IGFBP7 insulin-like growth factor binding protein 7, gene expression ratio to no drug control (D) [3]	IGFBP4 insulin-like growth factor binding protein 4, gene expression ratio to no drug control (D) [3]	IGFBP6 insulin-like growth factor binding protein 6, gene expression ratio to no drug control (D) [3]	IGFBP1 insulin-like growth factor binding protein 1, gene expression ratio to no drug control (D) [3]	IGFBP3 insulin-like growth factor binding protein 3, gene expression ratio to no drug control (D) ([3]; probe 210095_s_at)	IGFBP3 insulin-like growth factor binding protein 3, gene expression ratio to no drug control (D) ([3]; probe 212143_s_at)	RAB3B, member RAS oncogene family, gene expression ratio to no drug control (D) ([4]; probe 205924_at)	RAB3B, member RAS oncogene family, gene expression ratio to no drug control (D) ([4]; probe 205925_s_at)	RAB3B, member RAS oncogene family, gene expression ratio to no drug control (D) ([4]; probe 227123_at)	RAB3B, member RAS oncogene family, gene expression ratio to no drug control (D) ([4]; probe 242629_at)	GI50 (60 cancer cell lines)	IC50 (OVCA 433)
C/C=C(/C)C(=O)O[C@H]1[C@H](OC(=O)/C(C)=C\C)[C@@]2(CO)C(CC1(C)C)C1=CCC3[C@@]4(C)CC[C@H](O)C(C)(C)C4CC[C@@]3(C)[C@]1(C)[C@@H](O)[C@H]2O (stereo partly shown) [ACH-Y]	−1.3 folds	−1.4 folds	1.0 folds	−2.7 folds	−2.4 folds	−1.8 folds	−1.8 folds	−3.5 folds	−5.3 folds	−1.8 folds	−1.2 folds	−1.2 folds	−1.8 folds	–	–
C/C=C(/C)C(=O)O[C@H]1[C@H](OC(=O)/C(C)=C\C)[C@@]2(CO)C(CC1(C)C)C1=CCC3[C@@]4(C)CC[C@H](O[C@@H]5OC(C(=O)O)[C@@H](O)C(O[C@@H]6O[C@@H](CO)C(O)C6O)C5O[C@@H]5OC(CO)[C@H](O)C(O)C5O)C(C)(C)C4CC[C@@]3(C)[C@]1(C)[C@@H](O)[C@H]2O (stereo partly drawn) [Xanifolia-Y, 3-O-[β-D-galactopyranosyl (1→2)]-α-L-arabinofuranosy (1→3)-β-D-glucuronopyranosyl-21,22-O-diangeloyl-3β, 15α, 16α, 21β, 22α, 28-hexahydroxyolean-12-ene]	−1.8 folds	−1.4 folds	−3.2 folds	−1.4 folds	−1.7 folds	−1.3 folds	−1.7 folds	−4.0 folds	−3.7 folds	−1.7 folds	−1.2 folds	−1.6 folds	−3.5 folds	0.1 to 1 µM	8.8 µM
